Source: patent US20240182422A1, “PREPARATION METHOD OF QUINOLINE DERIVATIVE COMPOUNDS” (ABIVAX, priority 2021, published 2024)

Columns and labels:
[1] = Particle size distribution measurement (WET method, laser diffraction, Mastersizer); assay type: physicochemical; details: PSD wet method, dispersant demineralised water, Triton X100
Excerpt: Particle size distribution (PSD), summarized by D10, D50 and D90 values, were obtained by using the WET method, the details of which are as follows: • Material used: • Equipment: Mastersizer 300 (hydro MV) • Dispersant: demineralised water • Surfactant: Triton X100 • No saturation • Operational parameters: • optical model: Particles type (MS3000 only) no-spherical • Mie: • refractive index of particles: 1.443 • absorption index of particles: 0.1 • refractive index of the dispersant: 1.33 • Measurement: • Measurement time: 10 seconds • Measurement time of the background: 10 seconds • Stirrer speed: 1200 rpm +/−400 • Obscuration range: 5-19% • Delay time measurement: 1-5 minutes • Model: standard • Analysis precision: normal • Sample preparation: • Weight about 100 mg of product in a glass beaker • Add 2-4 drops of surfactant • Complete with the dispersant until the 20 mL mark of the 50 mL graduated beaker • Shake for 3 seconds to 60 seconds • Put in the external ultrasound cell • Sonication duration: 2-3minutes
After the milling step 5, the milled sample thus obtained from example 4 was characterized by measurement of its particle size distribution (see table 3 below) according to the method as defined above.
For comparison purposes, the measurement of the particle size distribution has also been carried out for the native 8-chloro-N-(4-(trifluoromethoxy)phenyl)quinolin-2-amine (Form I) obtained from step 4 of example 4 above (i.e. product obtained from example 4 before milling).

[2] = USP <711> / Ph. Eur. 2.9.3 pharmacopeial dissolution profile (apparent dissolution test, paddle apparatus); assay type: physicochemical; details: for solubility (percentage dissolved) at 45 min: 50 mg drug substance, 900 mL 0.25% CTAB in 0.1 M HCl, paddle USP type II 100 rpm
Description: Pharmacopeial (USP <711>, Ph. Eur. 2.9.3) dissolution profiles of the drug substance were established.
A dissolution experiment evaluates the rate and extent that a compound forms a solution under carefully controlled conditions and using paddle dissolution apparatus fulfilling USP <711>, Ph. Eur. 2.9.3 requirements.
The dissolution profiles of 50 mg from a native ABX464 and one milled ABX 464 (8000 rpm) drug substance (DS) in the dissolution media have been compared.
The dissolution conditions and materials were as follows: • Equipment • Class A glassware • Analytical scale • Automatic pipette • UPLC system consisting of a binary or quaternary pump, an automated injector, a thermostated column oven, and a UV or DAD detector controlled by the Waters Empower® software • AT 7 smart (Sotax) or equivalent dissolution apparatus with USP type II paddle • Chemicals • water (dissolution medium) Demineralized water purified by Milli_Q Millipore (type II) • Demineralized water purified by Milli_Q Millipore • syringe filter Spartan 30 mm HPLC-Certified syringe Filter, 0.2 μm, RC (regenerated cellulose) • Acetonitrile Biosolve (UPLC grade) (ACN) • Cetyl trimethylammonium bromide (CTAB) • Hydrochloric acid (HCl) 1M (AVS tritinorm) • Formic acid (LCMS grade) • Chromatographic conditions • Column: Acquity UPLC BEH C18, 2.1 mm ID*50 mm, 1.7 μm pore size or equivalent • Mobile phase A: 0.1% (v/v) Formic acid in water • Mobile phase B: ACN • Isocratic mode 35% A/65% B • Flow rate 0.3 mL/min • Analytical run time: 5 min • Volume injection: 5 μL • Detection: UV at 220 nm • Autosampler: room temperature • Column temperature: 40° C. • Needle wash: Water/ACN (50/50 v/v) • Diluent • Dissolution medium: 0.25% CTAB in 0.1 M HCl. Transfer 25 g of CTAB into a 10 000 mL volumetric flask, add 1 000 mL of HCl 1M and dilute to volume with water (different amounts and volumes may be used as long as the final concentration remains the same) • Solutions
Accurately weight 22.2 mg of the drug substance into a 100 mL volumetric flask, dissolve in about 5 mL ACN and dilute to volume with diluent. • Dissolution conditions • Dissolution medium: 0.25% CTAB in 0.1 M HCl • Temperature: 37° C. +/−0.5° C. • Agitation: 100 rpm +/−1 rpm • Type of agitation: Paddle (USP type II) • Volume of dissolution medium: 900 mL • Sampling time: 5, 10, 15, 30, 45, 60, 75 and 90 min • Sampling volume 5 ml (discard the first 3 ml) • Test on 6 vessels • place the sample (50 mg) into each dissolution vessel
The non-corrected dissolved percentages were calculated as follows: […]
The corrected dissolved percentage were calculated as follows: […]

[3] = listed as Native (not milled) compound

Row | SMILES | Particle size distribution D10 [1] [μm] | Particle size distribution D50 [1] [μm] | Particle size distribution D90 [1] [μm] | Particle size distribution D10 ([1]; listed as milled ABX464) [μm] | Particle size distribution D50 ([1]; listed as milled ABX464) [μm] | Particle size distribution D90 ([1]; listed as milled ABX464) [μm] | solubility (percentage dissolved) at 45 min ([2]; 37° C., 45 min) [%] | solubility compared to the native compound (FIG. 2 dissolution profile) ([2]; milled at 8000 rpm vs native, 0.25% CTAB in 0.1 M HCl, 37° C.) | increase of solubility (percentage dissolved) of milled compound compared to the native compound at 45 min ([2]; same dissolution conditions, 45 min, milled (8000 rpm) vs native) | Particle size distribution D10 [1, 3] [μm] | Particle size distribution D50 [1, 3] [μm] | Particle size distribution D90 [1, 3] [μm]
1 | FC(F)(F)Oc1ccc(Nc2ccc3cccc(Cl)c3n2)cc1 [milled compound, 8-chloro-N-(4-(trifluoromethoxy)phenyl)quinolin-2-amine] | 6.8 | 50.0 | 122.0 | 6.8 | 50.0 | 122.0 | 95.4 | improved solubility | about 38.1% | – | – | –
2 | FC(F)(F)Oc1ccc(Nc2ccc3cccc(Cl)c3n2)cc1 [native compound, 8-chloro-N-(4-(trifluoromethoxy)phenyl)quinolin-2-amine] | – | – | – | – | – | – | 57.3 | – | – | 24.5 | 164.0 | 444.0
